Assay results as given in US7868204B2, “Inhibitors of histone deacetylase” (MethylGene Inc., priority 2001, dated 2011).
Where two headings read alike, the source gives them in different places.

Assays:
[1] = system: acetylated histone H-4 in T24 human bladder cancer cells; experiment: Histone H4 acetylation in whole cells by immunoblots; format: cell-based; conditions: 16 h
How it was run: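 Acetylated histone H4 was quantified by densitometry of ECL-developed immunoblots, probed with a polyclonal antibody, of […] total histone from T24 cultures exposed 16 h to HDAC inhibitors.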

[2] = biological target: T1, cloned recombinant human HDAC-1 (Homo sapiens, UniProt Q13547); experiment: Human HDAC-1 enzyme inhibition, Assay 1 ([3H]-acetylated histone substrate, scintillation counting); format: biochemical
T1 construct: made in house; host or cells: Baculovirus insect cell expression system
How it was run: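 Activity read as [3H]-acetic acid liberated from labeled substrate, ethyl acetate-extracted and scintillation-counted. Compounds preincubated 30 min at 4° C. with baculovirus-expressed, purified human HDAC-1. Dose-response curves give IC50 as concentration producing fifty percent of maximal inhibition.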

HCT116 cells = experiment: MTT assay; format: cell-based; conditions: Homo sapiens, HCT116 cells, 72 hours
How it was run: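 Read-out: MTT (0.5 mg/ml final, 4 h) after solubilization in 50% DMF/20% SDS, pH 4.7, with OD translated into cell number via the line's growth curve. Compound treatment lasted 72 h at 37 °C in 5% CO2, starting a day after plating.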

[3] = T-24, Table 5F, read-out: H4 Ac (T24) EC50
[4] = Table 5F, read-out: Human HDAC-1 IC50
[5] = T-24, Table 5E, read-out: H4 Ac (T24) EC50
[6] = Table 5E, read-out: Human HDAC-1 IC50
[7] = T-24, Table 5d, read-out: H4Ac(T24) EC50
[8] = Table 5d, read-out: HDAC-1 IC50
[9] = T-24, Table 5b, read-out: H4Ac (T24) EC50
[10] = Table 5b, read-out: Human HDAC-1 IC50
[11] = T-24, Table 5a, read-out: H4Ac (T24) EC50
[12] = Table 5a, read-out: Human HDAC-1 IC50

T1 sequence (Q13547 whole entry): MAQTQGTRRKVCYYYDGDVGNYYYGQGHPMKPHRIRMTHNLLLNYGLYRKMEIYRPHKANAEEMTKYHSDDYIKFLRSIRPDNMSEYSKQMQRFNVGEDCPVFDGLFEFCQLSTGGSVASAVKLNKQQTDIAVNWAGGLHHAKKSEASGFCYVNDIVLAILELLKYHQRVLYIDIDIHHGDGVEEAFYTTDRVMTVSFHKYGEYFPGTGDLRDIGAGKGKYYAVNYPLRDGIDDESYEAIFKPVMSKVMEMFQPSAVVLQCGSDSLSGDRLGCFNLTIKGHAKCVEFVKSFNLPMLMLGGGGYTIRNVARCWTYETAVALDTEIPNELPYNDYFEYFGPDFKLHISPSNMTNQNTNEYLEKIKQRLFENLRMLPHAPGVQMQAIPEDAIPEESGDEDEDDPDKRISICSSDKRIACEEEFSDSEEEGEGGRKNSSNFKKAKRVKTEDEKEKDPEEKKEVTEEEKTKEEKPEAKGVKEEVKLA

SMILES	EC50 [1, 3] [µM]	IC50 [2, 4] [µM]	IC50 (HCT116 cells; HCT-116, 72 h, Table 5F) [µM]	further results
Cc1c(Cc2ccc(C(=O)Nc3ccccc3N)cc2)sc(NC(=O)Nc2ccccc2)c1C#N [Cpd 361, N-(2-Amino-phenyl)-4-[4-cyano-3-methyl-5-(3-phenyl-ureido)-thiophen-2-ylmethyl]-benzamide]	1	2	0.5	–
Nc1ccccc1NC(=O)c1ccc(Cn2nnc3ccccc3c2=O)cc1 [Cpd 155, N-(2-Amino-phenyl)-4-(4-oxo-4H-benzo[d][1,2,3]triazin-3-ylmethyl)-benzamide]	–	–	–	EC50 [1, 5]: 1 µM; IC50 [2, 6]: 0.4 µM; IC50 (HCT116 cells; HCT-116, 72 h, Table 5E): 0.4 µM
Nc1ccccc1NC(=O)/C=C/c1ccc(NCc2cccnc2)nc1 [Cpd 90, N-(2-aminophenyl)-3-{6-[(pyridin-3-ylmethyl)-amino]-pyridin-3-yl}-acrylamide]	–	–	–	EC50 ([1]; T-24, Table 5c, read-out: H4Ac (T24) EC50): 5 µM; IC50 ([2]; Table 5c, read-out: Human HDAC-1 IC50): 10 µM; IC50 (HCT116 cells; HCT-116, 72 h, Table 5c): 5 µM
Nc1ccccc1NC(=O)c1ccc(CSc2nc3ccccc3s2)cc1 [Cpd 172]	–	–	–	EC50 [1, 5]: 3 µM; IC50 [2, 6]: 0.4 µM; IC50 (HCT116 cells; HCT-116, 72 h, Table 5E): 1 µM
CSc1ccc(NCc2ccc(/C=C/C(=O)Nc3ccccc3N)cc2)cc1 [Cpd 556, N-(2-Amino-phenyl)-3-{4-[(4-methylsulfanyl-phenylamino)-methyl]-phenyl}acrylamide]	–	–	–	EC50 [1, 7]: 15 µM; IC50 [2, 8]: 1 µM; IC50 (HCT116 cells; HCT-116, Table 5d): 0.4 µM
Nc1ccccc1NC(=O)c1ccc(CNc2ccc3c(c2)OCO3)cc1 [Cpd 428, N-(2-Amino-phenyl)-4-(benzo[1,3]dioxol-5-ylaminomethyl)-benzamide]	1	0.7	0.7	–
Nc1ccccc1NC(=O)c1ccc(Cn2nnc3ccc(Cl)cc3c2=O)cc1 [Cpd 348, N-(2-Amino-phenyl)-4-(6-chloro-4-oxo-4H-benzo[d][1,2,3]triazin-3-ylmethyl)-benzamide]	1	2	0.3	–
COc1ccc(N(Cc2ccc(C(=O)Nc3ccccc3N)cc2)C(=O)Nc2ccc(Oc3ccccc3)cc2)cc1OC [Cpd 374, N-(2-Amino-phenyl)-4-[1-(3,4-dimethoxy-phenyl)-3-(4-phenoxy-phenyl)-ureidomethyl]-benzamide]	1	2.5	0.3	–
Nc1ccccc1NC(=O)c1ccc(CN2C(=O)COc3ccccc32)cc1 [Cpd 362, N-(2-Amino-phenyl)-4-(3-oxo-2,3-dihydro-benzo[1,4]oxazin-4-ylmethyl)-benzamide]	1	2	0.7	–
Nc1ccccc1NC(=O)c1ccc(CNc2nc(NCCc3ccccc3)nc(NC3CC3)n2)cc1 [Cpd 471]	–	–	–	EC50 [1, 9]: 3 µM; IC50 [2, 10]: 0.4 µM; IC50 (HCT116 cells; HCT-116, 72 h, Table 5b): 1 µM
C=CCNc1nc(NCc2ccc(C(=O)Nc3ccccc3N)cc2)nc(NC2Cc3ccccc3C2)n1 [Cpd 18]	–	–	–	EC50 [1, 11]: 3 µM; IC50 [2, 12]: 0.8 µM; IC50 (HCT116 cells; HCT-116, 72 h, Table 5a): 0.6 µM
Nc1ccccc1NC(=O)c1ccc(Cn2nnc3ccc(Br)cc3c2=O)cc1 [Cpd 347, N-(2-Amino-phenyl)-4-(6-bromo-4-oxo-4H-benzo[d][1,2,3]triazin-3-ylmethyl)-benzamide]	2	2	0.6	–
Cc1sc2ncn(Cc3ccc(C(=O)Nc4ccccc4N)cc3)c(=O)c2c1C [compound 259, N-(2-Amino-phenyl)-4-(5,6-dimethyl-4-oxo-4H-thieno[2,3-d]pyrimidin-3-ylmethyl)-benzamide]	1	3	0.3	–
Nc1nc(NCc2ccc(C(=O)Nc3ccccc3N)cc2)nc(NC2Cc3ccccc3C2)n1 [Cpd 8, 4-{[4-Amino-6-(2-indanyl-amino)-[1,3,5]-triazin-2-yl-amino]-methyl}-N-(2-amino-phenyl)-benzamide]	–	–	–	EC50 [1, 11]: 1 µM; IC50 [2, 12]: 0.4 µM; IC50 (HCT116 cells; HCT-116, 72 h, Table 5a): 0.5 µM
Nc1ccccc1NC(=O)c1ccc(CNc2ccc(F)cc2)cc1 [Cpd 415, N-(2-Amino-phenyl)-4-[(4-fluoro-phenylamino)-methyl]-benzamide]	3	3	1	–
Nc1nc(NCc2ccc(C(=O)Nc3ccccc3N)cc2)nc(N2CCc3ccccc32)n1 [Cpd 22, 4-{[4-Amino-6-(2,3-dihydro-indol-1-yl)-[1,3,5]triazin-2-ylamino]-methyl}-N-(2-amino-phenyl)-benzamide]	–	–	–	EC50 [1, 11]: 1 µM; IC50 [2, 12]: 3 µM; IC50 (HCT116 cells; HCT-116, 72 h, Table 5a): 0.8 µM
Nc1ccccc1NC(=O)c1ccc(-c2cccc(CNC3Cc4ccccc4C3)c2)cc1 [Cpd 186]	2	2	2	–
Nc1ccccc1NC(=O)/C=C/c1ccc(NCc2cccc(OCC(F)(F)F)c2)nc1 [Cpd 525, N-(2-Amino-phenyl)-3-{6-[3-(2,2,2-trifluoro-ethoxy)-benzylamino]-pyridin-3-yl}-acrylamide]	–	–	–	EC50 [1, 7]: 5 µM; IC50 [2, 8]: 3 µM; IC50 (HCT116 cells; HCT-116, Table 5d): 4 µM
Nc1ccccc1NC(=O)c1ccc(CN2C(=O)CSc3ccccc32)cc1 [Cpd 363, N-(2-Amino-phenyl)-4-(3-oxo-2,3-dihydro-benzo[1,4]thiazin-4-ylmethyl)-benzamide]	3	1	0.3	–
COCCNc1nc(NCCc2ccccc2)nc(NCc2ccc(C(=O)Nc3ccccc3N)cc2)n1 [Cpd 474]	–	–	–	EC50 [1, 9]: 1 µM; IC50 [2, 10]: 3 µM; IC50 (HCT116 cells; HCT-116, 72 h, Table 5b): 1 µM
COc1cc(NCc2ccc(C(=O)Nc3ccccc3N)cc2)ncn1 [Cpd 385]	2	3	1	–
COc1cc(Cl)cc(NCc2ccc(C(=O)Nc3ccccc3N)cc2)n1 [Cpd 387]	1	2	1	–
CC(=O)Nc1sc(Cc2ccc(C(=O)Nc3ccccc3N)cc2)cc1C#N [Cpd 359, 4-(5-Acetylamino-4-cyano-thiophen-2-ylmethyl)-N-(2-amino-phenyl)-benzamide]	1	2	0.3	–
Nc1nc(NCc2ccc(C(=O)Nc3ccccc3N)cc2)nc(N2Cc3ccccc3C2)n1 [Cpd 28]	–	–	–	EC50 [1, 11]: 1 µM; IC50 [2, 12]: 2 µM; IC50 (HCT116 cells; HCT-116, 72 h, Table 5a): 0.5 µM
COc1ccc(NC(=O)N(Cc2ccc(C(=O)Nc3ccccc3N)cc2)c2ccc(OC)c(OC)c2)cc1OC [Cpd 371, N-(2-Amino-phenyl)-4-[1,3-bis-(3,4-dimethoxy-phenyl)-ureidomethyl]-benzamide]	2	4	0.5	–
Cc1cc(C)nc(OCc2ccc(C(=O)Nc3ccccc3N)cc2)n1 [Cpd 384, N-(2-Amino-phenyl)-4-(4,6-dimethyl-pyrimidin-2-yloxymethyl)-benzamide]	5	3	2	–
Nc1ccccc1NC(=O)c1ccc(CNc2nc(-c3ccc(Cl)cc3)cs2)cc1 [Cpd 321, N-(2-Amino-phenyl)-4-{[4-(4-chloro-phenyl)-thiazol-2-ylamino]-methyl}-benzamide]	5	0.5	0.3	–
COc1cc(N(CCN2CCOCC2)Cc2ccc(/C=C/C(=O)Nc3ccccc3N)cc2)cc(OC)c1OC [Cpd 523, N-(2-Amino-phenyl)-3-(4-{[(2-morpholin-4-yl-ethyl)-(3,4,5-trimethoxy-phenyl)-amino]-methyl}-phenyl)-acrylamide]	–	–	–	EC50 [1, 7]: 10 µM; IC50 [2, 8]: 8 µM; IC50 (HCT116 cells; HCT-116, Table 5d): 6 µM
Nc1ccccc1NC(=O)c1ccc(CNc2ncnc(NCCc3ccccc3)n2)cc1 [Cpd 210]	–	–	–	EC50 [1, 9]: 1 µM; IC50 [2, 10]: 3 µM; IC50 (HCT116 cells; HCT-116, 72 h, Table 5b): 0.9 µM
COc1cc(CNc2ccc3oc(C(=O)Nc4ccccc4N)cc3c2)cc(OC)c1OC [Cpd 592, 5-(3,4,5-Trimethoxy-benzylamino)-benzofuran-2-carboxylic acid (2-amino-phenyl)-amide]	< 1	5	0.4	–
